# Measurements from patent publication US20250376445A1, “COMPOUNDS AND METHODS FOR YAP/TEAD MODULATION AND INDICATIONS THEREFOR” (OPNA BIO SA, priority 2023, published 2025).
# Test system: TEAD-dependent transcription
# Experiment: TEAD-dependent transcription cell-based reporter assay (MSTO-211H+12XGTIIC luciferase)
# Design: species or system human
# Settings: Homo sapiens; MSTO-211H+12XGTIIC reporter cells, 24 hours compound incubation, luminescence normalized to viability; read-out: MSTO-211H GMean IC50 (uM) Cell Assay Reporter Cell Variant: TEAD
# Source text: The human mesothelioma cell line MSTO-211H was stably transfected with a pGL4.21 plasmid containing a synthetic promoter with 12 copies of the GTIIC TEAD response element that drives the expression of a luciferase reporter gene^1 using Lipofectamine transfection reagent (Thermo Fisher). Transfected cells were selected using puromycin and single cell clones expressing this construct (referred to as MSTO-211H+12XGTIIC) were generated by limiting dilution. MSTO-211H cells was characterized by genetic alterations in key components of the Hippo pathway^2, resulting in up-regulation of YAP/TEAD-mediated transcription. […] To evaluate TEAD inhibitors, the MSTO-211H+12XGTIIC cell line was seeded in a 96-well plate in 50 μL of culture media at 1×10^4 cells per well and incubated at 37° C. overnight. Serial dilutions of compounds (in total volume of 50 μL of culture media) were added to the cells and incubated at 37° C. for 24 hours. Each plate included cells treated with DMSO as high controls and cells treated with 20 μM of the reference compound K-975 (a known TEAD inhibitor)^3 as low controls. Cell viability was assayed by the addition of 25 μL of CellTiter-Fluor reagent (Promega) followed by a 30-minute incubation at 37° C. and quantification of the fluorescence signal (Ex400/Em505). Subsequently, luciferase expression was assayed by the addition of 25 μL of ONE-Glo reagent (Promega) followed by a 10-minute incubation at room temperature and quantification of the luminescence signal. The luminescence signal was normalized to the fluorescence signal to correct for any loss in cell viability over the 24-hour compound incubation period. The percentage of inhibition of normalized luminescence signal, indicative of compound-mediated inhibition of TEAD-dependent transcription, at individual compound concentrations relative to high and low controls was calculated. The data were analyzed by using nonlinear regression to generate IC50 values for individual compounds.
row,Structure (SMILES),IC50 [µM]
1,"C=CS(=O)(=O)N1CCc2ccc(-c3ccc(C(F)(F)F)cc3)cc2C1 [O-0114, 7-(4-(trifluoromethyl)phenyl)-2-(vinylsulfonyl)-1,2,3,4-tetrahydroisoquinoline]",0.001 to 10
2,"O=C(CCS(=O)(=O)C(F)(F)F)N1CCc2c(cccc2C(F)(F)c2ccc(C(F)(F)F)nc2)C1 [O-0009, 1-(5-(difluoro(6-(trifluoromethyl)pyridin-3-yl)methyl)-3,4-dihydroisoquinolin-2(1H)-yl)-3-((trifluoromethyl)sulfonyl)propan-1-one]",0.001 to 10
3,"C=CC(=O)N1CCc2cc(-c3ccc(C(F)(F)F)cc3)ccc2C1 [O-0110, 1-(6-(4-(trifluoromethyl)phenyl)-3,4-dihydroisoquinolin-2(1H)-yl)prop-2-en-1-one]",0.001 to 10
4,"C[C@@H](NS(C)(=O)=O)C(=O)N1CCc2cc(-c3ccc(C(F)(F)F)cc3)ccc2C1 [O-0161, (R)-N-(1-oxo-1-(6-(4-(trifluoromethyl)phenyl)-3,4-dihydroisoquinolin-2(1H)-yl)propan-2-yl)methanesulfonamide]",0.001 to 10
5,"O=C(Cc1cnc[nH]1)N1CCc2ccc(C(F)(F)c3ccc(C(F)(F)F)nc3)cc2C1 [O-0060, 1-(7-(difluoro(6-(trifluoromethyl)pyridin-3-yl)methyl)-3,4-dihydroisoquinolin-2(1H)-yl)-2-(1H-imidazol-5-yl)ethan-1-one]",0.001 to 10
6,"CS(=O)(=O)c1nc(C(=O)N2CCc3cc(-c4ccc(C(F)(F)F)cc4)ccc3C2)c[nH]1 [O-0190, (2-(methylsulfonyl)-1H-imidazol-4-yl)(6-(4-(trifluoromethyl)phenyl)-3,4-dihydroisoquinolin-2(1H)-yl)methanone]",0.001 to 10
7,"CS(=O)(=O)c1nccc(C(=O)N2CCc3ccc(C(=O)c4ccc(C(F)(F)F)cc4)cc3C2)n1 [O-0058, (2-(methylsulfonyl)pyrimidin-4-yl)(7-(4-(trifluoromethyl)benzoyl)-3,4-dihydroisoquinolin-2(1H)-yl)methanone]",0.001 to 10
8,"CS(=O)(=O)c1nccc(C(=O)N2CCc3c(cccc3C(=O)c3ccc(C(F)(F)F)cc3)C2)n1 [O-0033, (2-(methylsulfonyl)pyrimidin-4-yl)(5-(4-(trifluoromethyl)benzoyl)-3,4-dihydroisoquinolin-2(1H)-yl)methanone]",0.001 to 10
9,"O=C(CCS(=O)(=O)C(F)(F)F)N1CCc2ccc(C(F)c3ccc(C(F)(F)F)nc3)cc2C1 (stereo not drawn) [O-0063, 1-(7-(fluoro(6-(trifluoromethyl)pyridin-3-yl)methyl)-3,4-dihydroisoquinolin-2(1H)-yl)-3-((trifluoromethyl)sulfonyl)propan-1-one]",0.001 to 10
10,"O=C(c1ccc(C(F)(F)F)cc1)c1cccc2c1CCN(C(=O)c1ccc3[nH]ccc3c1)C2 [O-0075, (2-(1H-indole-5-carbonyl)-1,2,3,4-tetrahydroisoquinolin-5-yl)(4-(trifluoromethyl)phenyl)methanone]",0.001 to 10
11,"CS(=O)(=O)c1nc(C(=O)N2CCc3ccc(-c4ccc(C(F)(F)F)cc4)cc3C2)c[nH]1 [O-0189, (2-(methylsulfonyl)-1H-imidazol-4-yl)(7-(4-(trifluoromethyl)phenyl)-3,4-dihydroisoquinolin-2(1H)-yl)methanone]",0.001 to 10
12,"O=C(c1c[nH]c(C(F)(F)F)n1)N1CCc2ccc(-c3ccc(C(F)(F)F)cc3)cc2C1 [O-0188, (2-(trifluoromethyl)-1H-imidazol-4-yl)(7-(4-(trifluoromethyl)phenyl)-3,4-dihydroisoquinolin-2(1H)-yl)methanone]",10 to 100
13,"O=C(c1ccc(C(F)(F)F)cc1)c1cccc2c1CCN(C(=O)c1c[nH]c(C(F)(F)F)n1)C2 [O-0037, (2-(trifluoromethyl)-1H-imidazol-4-yl)(5-(4-(trifluoromethyl)benzoyl)-3,4-dihydroisoquinolin-2(1H)-yl)methanone]",0.001 to 10
14,"CC(=O)N[C@H](C)C(=O)N1CCc2ccc(-c3ccc(C(F)(F)F)cc3)cc2C1 [O-0182, (R)-N-(1-oxo-1-(7-(4-(trifluoromethyl)phenyl)-3,4-dihydroisoquinolin-2(1H)-yl)propan-2-yl)acetamide]",0.001 to 10
15,"O=C(Cc1cscn1)N1CCc2c(Cc3ccc(C(F)(F)F)cc3)cccc2C1 [O-0079, 2-(thiazol-4-yl)-1-(5-(4-(trifluoromethyl)benzyl)-3,4-dihydroisoquinolin-2(1H)-yl)ethan-1-one]",0.001 to 10
16,"CS(=O)(=O)c1nc(C(=O)N2CCc3ccc(C(F)(F)c4ccc(C(F)(F)F)nc4)cc3C2)c[nH]1 [O-0061, (7-(difluoro(6-(trifluoromethyl)pyridin-3-yl)methyl)-3,4-dihydroisoquinolin-2(1H)-yl)(2-(methylsulfonyl)-1H-imidazol-4-yl)methanone]",0.001 to 10
17,"C=CS(=O)(=O)N1CCc2cc(-c3ccc(C(F)(F)F)cc3)ccc2C1 [O-0111, 6-(4-(trifluoromethyl)phenyl)-2-(vinylsulfonyl)-1,2,3,4-tetrahydroisoquinoline]",0.001 to 10
18,"O=C(Cc1cscn1)N1CCc2c(cccc2C(F)c2ccc(C(F)(F)F)cc2)C1 (stereo not drawn) [O-0056, 1-(5-(fluoro(4-(trifluoromethyl)phenyl)methyl)-3,4-dihydroisoquinolin-2(1H)-yl)-2-(thiazol-4-yl)ethan-1-one]",0.001 to 10
19,"CCOC(c1ccc(C(F)(F)F)cc1)c1cccc2c1CCN(C(=O)CCS(C)(=O)=O)C2 (stereo not drawn) [O-0057, 1-(5-(ethoxy(4-(trifluoromethyl)phenyl)methyl)-3,4-dihydroisoquinolin-2(1H)-yl)-3-(methylsulfonyl)propan-1-one]",0.001 to 10
20,"C[C@@H](N)C(=O)N1CCc2cc(-c3ccc(C(F)(F)F)cc3)ccc2C1 [O-0186, (R)-2-amino-1-(6-(4-(trifluoromethyl)phenyl)-3,4-dihydroisoquinolin-2(1H)-yl)propan-1-one]",0.001 to 10
21,"C[C@@H](Nc1ccccn1)C(=O)N1CCc2c(cccc2-c2ccc(C(F)(F)F)cc2)C1 [O-0131, (R)-2-(pyridin-2-ylamino)-1-(5-(4-(trifluoromethyl)phenyl)-3,4-dihydroisoquinolin-2(1H)-yl)propan-1-one]",0.001 to 10
22,"C[C@@H](NC(=O)OC(C)(C)C)C(=O)N1CCc2c(cccc2-c2ccc(C(F)(F)F)cc2)C1 [O-0196, tert-butyl (R)-(1-oxo-1-(5-(4-(trifluoromethyl)phenyl)-3,4-dihydroisoquinolin-2(1H)-yl)propan-2-yl)carbamate]",> 100
23,"C[C@@H](NS(C)(=O)=O)C(=O)N1CCc2c(cccc2-c2ccc(C(F)(F)F)cc2)C1 [O-0185, (R)-N-(1-oxo-1-(5-(4-(trifluoromethyl)phenyl)-3,4-dihydroisoquinolin-2(1H)-yl)propan-2-yl)methanesulfonamide]",0.001 to 10
24,"C[C@@H](NC(=O)c1cccc(N)n1)C(=O)N1CCc2ccc(-c3ccc(C(F)(F)F)cc3)cc2C1 [O-0133, (R)-6-amino-N-(1-oxo-(7-(4-(trifluoromethyl)phenyl)-3,4-dihydroisoquinolin-2(1H)-yl)propan-2-yl)picolinamide]",0.001 to 10
25,"O=C(c1c[nH]c(C(F)(F)F)n1)N1CCc2c(cccc2-c2ccc(C(F)(F)F)cc2)C1 [O-0192, (2-(trifluoromethyl)-1H-imidazol-4-yl)(5-(4-(trifluoromethyl)phenyl)-3,4-dihydroisoquinolin-2(1H)-yl)methanone]",> 100
26,"O=C(CCS(=O)(=O)C(F)(F)F)N1CCc2c(cccc2C(F)c2ccc(C(F)(F)F)cc2)C1 (stereo not drawn) [O-0002, 1-(5-(fluoro(4-(trifluoromethyl)phenyl)methyl)-3,4-dihydroisoquinolin-2(1H)-yl)-3-((trifluoromethyl)sulfonyl)propan-1-one]",0.001 to 10
27,"O=C(CCS(=O)(=O)C(F)(F)F)N1CCc2c(cccc2C(F)c2ccc(C(F)(F)F)nc2)C1 (stereo not drawn) [O-0008, 1-(5-(fluoro(6-(trifluoromethyl)pyridin-3-yl)methyl)-3,4-dihydroisoquinolin-2(1H)-yl)-3-((trifluoromethyl)sulfonyl)propan-1-one]",0.001 to 10
28,"CS(=O)(=O)c1nc(C(=O)N2CCc3c(cccc3C(F)c3ccc(C(F)(F)F)cc3)C2)c[nH]1 (stereo not drawn) [O-0054, (5-(fluoro(4-(trifluoromethyl)phenyl)methyl)-3,4-dihydroisoquinolin-2(1H)-yl)(2-(methylsulfonyl)-1H-imidazol-4-yl)methanone]",0.001 to 10
29,"O=C(c1ccc(C(F)(F)F)cc1)c1cccc2c1CCN(C(=O)c1cccc3[nH]c(C(F)(F)F)nc13)C2 [O-0046, (2-(trifluoromethyl)-1H-benzo[d]imidazol-4-yl)(5-(4-(trifluoromethyl)benzoyl)-3,4-dihydroisoquinolin-2(1H)-yl)methanone]",0.001 to 10

# Same assay, conditions: MSTO-211H+12XGTIIC reporter cells, 24 hours compound incubation, luminescence normalized to viability; read-out: MSTO-211H GMean IC50 (uM) Cell Assay Reporter Cell Variant: TEAD
row,Structure (SMILES),IC50 [µM]
1,"O=C(CCS(=O)(=O)C(F)(F)F)N1CCc2c(cccc2C(F)c2ccc(C(F)(F)F)nc2)C1 (stereo not drawn) [O-0066, 1-(5-{fluoro[6-(trifluoromethyl)-3-pyridyl]methyl}-1,2,3,4-tetrahydro-2-isoquinolyl)-3-(trifluoromesyl)-1-propanone]",0.001 to 10
